The target of the test is Human immunodeficiency virus type 1 integrase (Human immunodeficiency virus 1) (UniProt Q7ZJM1). The experiment in a line: Inhibition of HIV1 integrase-mediated viral replication in human MT4 cells after 72 hrs in presence of 10% normal human serum. The class given is cell-based.
Sequence of Human immunodeficiency virus type 1 integrase (Human immunodeficiency virus 1) (Q7ZJM1 as listed by the source): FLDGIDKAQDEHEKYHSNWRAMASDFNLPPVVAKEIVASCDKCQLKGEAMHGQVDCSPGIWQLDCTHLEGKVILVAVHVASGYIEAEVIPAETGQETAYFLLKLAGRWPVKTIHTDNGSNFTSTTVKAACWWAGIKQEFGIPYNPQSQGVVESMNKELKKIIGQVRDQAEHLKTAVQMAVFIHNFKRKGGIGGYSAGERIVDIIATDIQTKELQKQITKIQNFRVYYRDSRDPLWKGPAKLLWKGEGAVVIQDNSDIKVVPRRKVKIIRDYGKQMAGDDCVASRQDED
As for `CC[C@H]1COCC2c3nc(c(O)c(=O)n31)C(=O)NCc1cc(C)c(F)cc1OCC/C=C/C(=O)N2C` (stereo partly drawn), the IC95 worked out at 6 nM.

Consider `CN1CCCc2cc(F)ccc2CNC(=O)c2nc3n(c(=O)c2O)CCCCC3N(C)C(=O)C1=O` (stereo not drawn), for which the IC95 turned out to be 2260 nM. For the compound `CC[C@H]1COC[C@@H]2c3nc(c(O)c(=O)n31)C(=O)NCc1ccc(F)cc1OCCCCC(=O)N2C`, the IC95 amounted to 9 nM.

What is called IC95 is the concentration at which the effect reaches the 95% level.
